# Values quoted from earlier work as cited in US10927398B2, “Compositions for CYP450 phenotyping using saliva samples” (Concordia University, Inc., priority 2015, dated 2021).
# Where two headings read alike, the source gives them in different places.
# Assays:
# [1] = Table of Exemplary Drugs, cited from earlier work
# plasma protein = conditions: cited from earlier work
# [2] = cited from earlier work
# [3] = Table of Exemplary Drugs, CYP1A2
# [4] = Table of Exemplary Drugs, CYP2C19
# [5] = Table of Exemplary Drugs, CYP2D6
# [6] = Table of Exemplary Drugs, CYP3A4
# [7] = Table of Exemplary Drugs, CYP2C9
smiles,measurement,setting,value
"COc1cc2ncnc(Nc3ccc(F)c(Cl)c3)c2cc1OCCCN1CCOCC1 [Gefitinib (Iressa), Gefitinib]",ORAL BIOAVAILABILITY,[1]; CYP3A4,60%
CC(C)Cc1ccc(C(C)C(=O)O)cc1 (centres unmarked) [Ibuprofen],ORAL BIOAVAILABILITY,[1]; CYP2C9,87-100%
CN(C)CCCN1c2ccccc2CCc2ccccc21 [Imipramine],PLASMA PROTEIN BINDING,plasma protein; [3],60-96% ^
same,PLASMA PROTEIN BINDING,plasma protein; [4],89%
same,PLASMA PROTEIN BINDING,plasma protein; [5],89%
same,ORAL BIOAVAILABILITY,[1]; CYP1A2,22-77%
same,ORAL BIOAVAILABILITY,[1]; CYP2C19,94-96%
same,ORAL BIOAVAILABILITY,[1]; CYP2D6,94-96%
COc1ccc2c(c1)N(C[C@H](C)CN(C)C)c1ccccc1S2 [Levomepromazine],ORAL BIOAVAILABILITY,[1]; CYP2D6,50-60%
same,HALF-LIFE,[2]; [5],15 h
"CN(C)C(=O)C(CCN1CCC(O)(c2ccc(Cl)cc2)CC1)(c1ccccc1)c1ccccc1 [Loperamide (Imodium), Loperamide]",ORAL BIOAVAILABILITY,[1]; CYP3A4,0.30%
same,HALF-LIFE,[2]; [6],9 to 14 h
COc1ccc2[nH]cc(CCNC(C)=O)c2c1 [Melatonin],ORAL BIOAVAILABILITY,[1]; CYP1A2,3-76%
same,HALF-LIFE,[2]; [3],0.583 to 0.833 h
CN1CCN2c3ncccc3Cc3ccccc3C2C1 (centres unmarked) [Mirtazapine],ORAL BIOAVAILABILITY,[1]; CYP2D6,50%
Cc1cc2c(s1)Nc1ccccc1N=C2N1CCN(C)CC1 [Olanzapine],ORAL BIOAVAILABILITY,[1]; CYP1A2,87%
same,HALF-LIFE,[2]; [3],21 to 54 h
"C[C@H](/C=C/[C@H](C)C(C)(C)O)[C@H]1CC[C@H]2/C(=C/C=C3C[C@@H](O)C[C@H](O)C3)CCC[C@]12C [Paricalcitol (Zemplar), Paricalcitol]",ORAL BIOAVAILABILITY,[1]; CYP3A4,72%
same,HALF-LIFE,[2]; [6],5 to 7 h
OCCN1CCN(CCCN2c3ccccc3Sc3ccc(Cl)cc32)CC1 [Perphenazine],ORAL BIOAVAILABILITY,[1]; CYP2D6,20%
same,HALF-LIFE,[2]; [5],9 to 12 h
CC(C)NCC(O)COc1cccc2ccccc12 (centres unmarked) [Propranolol],ORAL BIOAVAILABILITY,[1]; CYP1A2,100%
same,ORAL BIOAVAILABILITY,[1]; CYP2C19,30-70%
same,ORAL BIOAVAILABILITY,[1]; CYP2D6,30-70%
same,HALF-LIFE,[2]; [3],4 h
same,HALF-LIFE,[2]; [4],3 to 6 h
same,HALF-LIFE,[2]; [5],3 to 6 h
C=C[C@H]1C[N@@]2CC[C@H]1C[C@@H]2[C@@H](O)c1ccnc2ccc(OC)cc12 [Quinidine],PLASMA PROTEIN BINDING,plasma protein; [6],50-88% ^
same,ORAL BIOAVAILABILITY,[1]; CYP3A4,70-80%
C=C[C@H]1C[N@@]2CC[C@H]1C[C@H]2[C@H](O)c1ccnc2ccc(OC)cc12 [Quinine],ORAL BIOAVAILABILITY,[1]; CYP3A4,76-88%
"CN1CC(=O)N2[C@H](c3ccc4c(c3)OCO4)c3[nH]c4ccccc4c3C[C@@H]2C1=O [Tadalafil (Cialis), Tadalafil]",PLASMA PROTEIN BINDING,plasma protein; [6],94%
same,HALF-LIFE,[2]; [6],15 to 35 h
CC/C(=C(\c1ccccc1)c1ccc(OCCN(C)C)cc1)c1ccccc1 [Tamoxifen],PLASMA PROTEIN BINDING,plasma protein; [3],99%
same,PLASMA PROTEIN BINDING,plasma protein; [7],99%
same,PLASMA PROTEIN BINDING,plasma protein; [5],99%
same,PLASMA PROTEIN BINDING,plasma protein; [6],99%
same,HALF-LIFE,[2]; [3],~120 to 170 h
same,HALF-LIFE,[2]; [7],120 to 170 h
same,HALF-LIFE,[2]; [5],120 to 170 h
same,HALF-LIFE,[2]; [6],120 to 170 h
COc1cc([C@@H]2c3cc4c(cc3[C@@H](O[C@@H]3O[C@@H]5CO[C@@H](c6cccs6)O[C@H]5[C@H](O)[C@H]3O)[C@H]3COC(=O)[C@H]23)OCO4)cc(OC)c1O [Teniposide],PLASMA PROTEIN BINDING,plasma protein; [4],>99%
same,PLASMA PROTEIN BINDING,plasma protein; [6],>99%
same,HALF-LIFE,[2]; [4],5 h
same,HALF-LIFE,[2]; [6],5 h
CC(C)(C)NC[C@H](O)COc1nsnc1N1CCOCC1 [Timolol],PLASMA PROTEIN BINDING,plasma protein; [5],<10%
same,ORAL BIOAVAILABILITY,[1]; CYP2D6,90%
Clc1ccc2nsnc2c1NC1=NCCN1 [Tizanidine],PLASMA PROTEIN BINDING,plasma protein; [3],30%
same,ORAL BIOAVAILABILITY,[1]; CYP1A2,40%
"CC1(C)O[C@@H]2[C@@H](CO[C@@]3(COS(N)(=O)=O)OC(C)(C)O[C@@H]23)O1 [Topiramate (Topamax), Topiramate]",PLASMA PROTEIN BINDING,plasma protein; [6],15-41% ^
same,ORAL BIOAVAILABILITY,[1]; CYP3A4,80%
"Cc1nnc2n1-c1ccc(Cl)cc1C(c1ccccc1Cl)=NC2 [Triazolam (Halcion), Triazolam]",PLASMA PROTEIN BINDING,plasma protein; plasma,89-94% ^
same,HALF-LIFE,[2]; in vivo,2.3 h
COc1ccc(C(CN(C)C)C2(O)CCCCC2)cc1 (centres unmarked) [Venlafaxine],PLASMA PROTEIN BINDING,plasma protein; [5],27-30% ^
same,ORAL BIOAVAILABILITY,[1]; CYP2D6,12.6%
"CC[C@]1(O)C[C@@H]2CN(CCc3c([nH]c4ccccc34)[C@@](C(=O)OC)(c3cc4c(cc3OC)N(C)[C@H]3[C@@](O)(C(=O)OC)[C@H](OC(C)=O)[C@]5(CC)C=CCN6CC[C@]43[C@@H]65)C2)C1 [Vinblastine (Velbane), Vinblastine]",PLASMA PROTEIN BINDING,plasma protein; [6],98-99.7% ^
same,HALF-LIFE,[2]; [6],24.8 h
CC(c1cc2ccccc2s1)N(O)C(N)=O (centres unmarked) [Zileuton],PLASMA PROTEIN BINDING,plasma protein; [3],93%
same,HALF-LIFE,[2]; [3],2.5 to 3.2 h
"O=C1Cc2cc(CCN3CCN(c4nsc5ccccc45)CC3)c(Cl)cc2N1 [Ziprasidone (Geodon), Ziprasidone]",ORAL BIOAVAILABILITY,[1]; CYP3A4,60%
same,HALF-LIFE,[2]; [6],7 h
CN(C)CCc1c[nH]c2ccc(C[C@H]3COC(=O)N3)cc12 [Zolmitriptan],PLASMA PROTEIN BINDING,plasma protein; [3],25%
same,ORAL BIOAVAILABILITY,[1]; CYP1A2,~40%
